Experimental data published in patent US20250099407A1, “2-AMINO BENZOPHENONE DERIVATIVES FOR TARGETED FERROPTOSIS INDUCTION IN CANCER THERAPY” (INDIAN INSTITUTE OF TECHNOLOGY KANPUR, priority 2023, published 2025).
Read-outs that look alike come from different tables or passages of the source.

Key:
Assay type in all cases: cell-based
Huh-7 cells = assay: Combination cell viability experiments with thiols, ferroptosis modulators and cell death inhibitors in Huh-7 cells; settings: for reduction in potency by N-acetylcysteine (NAC) and GSH: 500 μM NAC or glutathione in combination; for effect of erastin addition on antiproliferative activity: Erastin 0.5 μM, relatively non-toxic concentration; for effect of apoptosis (QVD-OPh) and necrosis (Necrostatin-1) inhibitors on antiproliferative activity: QVD-OPh and Necrostatin-1 10 μM; for cell death mechanism from combination experiments: combination with GSH, NAC, BSO, Fer-1, deferoxamine, RSL3, FIN56, Erastin, QVD-OPh, necrostatin-1, Huh-7 and 4T1
Procedure: FIG. 14 depicts a combination experiment indicates the involvement of thiol modulation by IITK3001/IITK3002 on the viability of Huh-7 and 4T1 cells, in accordance with an embodiment of the present invention. The viability of screened cancer cells was recorded using a luminescence-based CellTiter-Glo® assay for the ATP quantification. The screening concentration of (a) IITK3001 and (b) IITK3002 ranged from 10 uM to 4.5 nM with an 8-point-3-fold dilution series in DMEM medium (>0.1% DMSO as control). For combination experiments, 500 μM of NAC or glutathione and 25 μM of BSO were used. Each experiment was conducted in more than two biological replicates with three technical replicates. The error bar is a representation of standard deviation among the technical replicates.
(§1) FIG. 16 depicts ferroptosis induction as a cell death mechanism is established for IITK3001 using combination experiments with ferroptosis inducers and inhibitors, in accordance with an embodiment of the present invention. The screening concentration of (a) IITK3001 and (b) IITK3002 ranged from 10 μM to 4.5 nM with an 8-point-3-fold dilution series in DMEM medium (>0.1% DMSO as control). For combination experiments, Ferrostain-1 (10 μM),Deferoxamine (3 μM), RSL3 (10 nM), FIN56 (30 nM), glutamine (0.5 mM), glutamic acid (0.5 mM), Erastin (0.5 μM) were used. Each experiment was conducted in more than two biological replicates with three technical replicates. The error bar is a representation of standard deviation among the technical replicates.
as §1, with “18” for “16”, “IITK3002” for “IITK3001”, “of” for “of (a) IITK3001 and (b)”, “μM), Deferoxamine” for “μM),Deferoxamine”
FIG. 20 depicts combining apoptosis and necroptosis inhibitors ruled out the possibility of respective cell death mechanisms upon treatment with IITK3001 or IITK3002 in Huh-7 and 4T1 cells, in accordance with an embodiment of the present invention. The screening concentration of IITK3001/IITK3002 ranged from 10 μM to 4.5 nM with an 8-point-3-fold dilution series in DMEM medium (>0.1% DMSO as control). For combination experiments, QVD-OPh and Necrsotatin-1 (10 μM) were used. Each experiment was conducted in more than two biological replicates with three technical replicates. The error bar is a representation of standard deviation among the technical replicates.
FIG. 22 depicts ferroptosis induction was established for IITK3003 using combination experiments in Huh-7 cells, in accordance with an embodiment of the present invention. The screening concentration of IITK3002 ranged from 10 uM to 4.5 nM with an 8-point-3-fold dilution series in DMEM medium (>0.1% DMSO as control). For combination experiments, Ferrostain-1 ([…]), Deferoxamine (3 μM), RSL3 (10 nM), FIN56 (30 nM), glutamine (0.5 mM), glutamic acid (0.5 mM), Erastin (0.5 μM) were used. Each experiment was conducted in more than two biological replicates with three technical replicates. The error bar is a representation of standard deviation among the technical replicates.
FIG. 24 depicts ferroptosis induction was established for IITK3004 using combination experiments in Huh-7 cells, in accordance with an embodiment of the present invention. The screening concentration of the molecules (a) IITK3001 and (b) IITK3002 ranged from 10 μM to 4.5 nM with a 8-point-3-fold dilution series. […]

RPMI 8226 = assay: Cell viability, CellTiter-Glo assay, RPMI 8226; settings: Homo sapiens; RPMI 8226, cell viability
Procedure: (§2) The viability of screened cancer cells was recorded using a luminescence-based CellTiter-Glo® assay for the ATP quantification. The screening concentration of the molecule ranged from 100/10 μM to 45/4.5 nM with an 8-point-3-fold dilution series in DMEM media (>0.1% DMSO as control). Each experiment was conducted in more than two biological replicates with three technical replicates. The error bar is a representation of standard deviation among the technical replicates.
as §2, with “IITK3002” for “the molecule”, “10” for “100/10”, “4.5” for “45/4.5”
(§3) a. […] In parallel, we have also synthesized the bromoacetamide (IITK3002) version of the lead molecules which is slightly more reactive with thiol nucleophiles when compared to chlorooacetamide warheads as depicted in FIG. 13. […] In addition, we also evaluated the molecules' antiproliferative potency against a panel of twelve different cancer phenotypes. […]

HCT116 = assay: Cell viability, CellTiter-Glo assay, HCT116; settings: Homo sapiens, HCT-116
Procedure: as §2
as §2, with “IITK3002” for “the molecule”, “10” for “100/10”, “4.5” for “45/4.5”
as §3

4T1 = assay: Cell viability, CellTiter-Glo assay, 4T1; settings: Mus musculus; 4T1, cell viability
Procedure: as §2
as §2, with “IITK3002” for “the molecule”, “10” for “100/10”, “4.5” for “45/4.5”
as §3

U87MG = assay: Cell viability, CellTiter-Glo assay, U87MG; settings: Homo sapiens, U-87 MG
Procedure: as §2
as §2, with “IITK3002” for “the molecule”, “10” for “100/10”, “4.5” for “45/4.5”
as §3

cancer cells = assay: Antiproliferative potency against cancer cells / panel of cancer cell lines
Procedure: as §2
as §2, with “IITK3002” for “the molecule”, “10” for “100/10”, “4.5” for “45/4.5”
a. […] In parallel, we have also synthesized the bromoacetamide (IITK3002) version of the lead molecules which is slightly more reactive with thiol nucleophiles when compared to chlorooacetamide warheads as depicted in FIG. 13. […] In addition, we also evaluated the molecules' antiproliferative potency against a panel of twelve different cancer phenotypes. The set of cancer cell lines included liver, breast, colon, myeloma, bone, blood, skin, brain and prostate lineages (FIG. 2, 3, Table 1).

MDA-MB-231 = assay: Cell viability, CellTiter-Glo assay, MDA-MB-231; settings: Homo sapiens; MDA-MB-231, cell viability
Procedure: as §2
as §2, with “IITK3002” for “the molecule”, “10” for “100/10”, “4.5” for “45/4.5”
as §3

Jurkat J6 = assay: Cell viability, CellTiter-Glo assay, Jurkat J6; settings: Homo sapiens
Procedure: as §2
as §2, with “IITK3002” for “the molecule”, “10” for “100/10”, “4.5” for “45/4.5”
as §3

MCF7 = assay: Cell viability, CellTiter-Glo assay, MCF7; settings: Homo sapiens
Procedure: as §2
as §2, with “IITK3002” for “the molecule”, “10” for “100/10”, “4.5” for “45/4.5”
as §3

[1] = cell line not stated, read-out: EC50, inhibition of cancer cell proliferation
[2] = range over twelve different cancer phenotypes, read-out: EC50 concentration range across panel of twelve cancer cell lines

Row | EC50 (HCT116) [nM] | EC50 (4T1) [nM] | EC50 (U87MG) [nM] | EC50 (cancer cells; [1]) [nM] | EC50 (cancer cells; [2]) [nM] | EC50 (MDA-MB-231) [nM] | EC50 (Jurkat J6) [nM] | EC50 (MCF7) [nM] | Compound | reduction in potency by N-acetylcysteine (NAC) and GSH (Huh-7 cells) [fold] | effect of erastin addition on antiproliferative activity (Huh-7 cells) | effect of apoptosis (QVD-OPh) and necrosis (Necrostatin-1) inhibitors on antiproliferative activity (Huh-7 cells) | cell death mechanism from combination experiments (Huh-7 cells) | EC50 (RPMI 8226) [nM]
1 | 37 | 66 | 80 | 3 | 20 to 132 | 26 | 37 | 20 | CN(C(=O)CBr)c1ccccc1C(=O)c1ccccc1 [IITK3002, N-(2-benzoylphenyl)-2-bromo-N-methylacetamide] | > 500 | no effect | no apparent deviation | ferroptosis | 39
2 |  |  |  |  |  |  |  |  | C#CCN(C(=O)CCl)c1ccccc1C(=O)c1ccccc1 [IITK3003, N-(2-benzoylphenyl)-2-chloro-N-(prop-2-yn-1-yl)acetamide] |  |  |  | exceptionally selective ferroptosis inducers | 
3 | 168 | 499 | 402 | 70 | 132 to 490 | 184 | 222 | 312 | CN(C(=O)CCl)c1ccccc1C(=O)c1ccccc1 [IITK3001, N-(2-benzoylphenyl)-2-chloro-N-methylacetamide] | > 1000 | no effect | no apparent deviation | ferroptosis | 133
